Measurements: PMC6269946, “Anti-Plasmodial Activity of Some Zulu Medicinal Plants and of Some Triterpenes Isolated from Them” (Molecules, 2013)
In brackets after ≈: the same amount, converted by molar mass. Like-named read-outs stand apart in the source and are kept apart here.

Legend:
[1] = test system: chloroquine sensitive (CQS) strain of Plasmodium falciparum (D10); assay: In vitro antiplasmodial activity, parasite lactate dehydrogenase assay; format: cell-based; details: for IC50: Plasmodium falciparum
Method: The test samples (crude extracts, isolates, and chemical derivatives) were tested in triplicate against a chloroquine sensitive (CQS) strain of Plasmodium falciparum (D10). Continuous in vitro cultures of asexual erythrocyte stages of P. falciparum were maintained using modified method of Trager and Jensen. Quantitative assessment of anti-plasmodial activity in vitro was determined via the parasite lactate dehydrogenase assay using a modified method described by Makler. The test samples were prepared to a 20 mg/mL stock solution in 100% DMSO and sonicated to enhance solubility. Stock solutions were stored at −20 °C. Further dilutions were prepared on the day of the experiment. Chloroquine and artesunate were used as the reference drugs for experiments. A full dose-response was performed for all active compounds to determine the concentration inhibiting 50% of parasite growth (IC50-value). Test samples were tested at a starting concentration of 100 μg/mL, which was then serially diluted 2-fold in complete medium to give 10 preparations of variable concentrations; with the lowest concentration being 0.2 μg/mL. The same dilution technique was used for all samples. CQ was tested at a starting concentration of 1,000 ng/mL. The highest concentration of solvent to which the parasite-infected erythrocytes were exposed to had no measurable effect on the parasite viability (data not shown). The IC50-values were obtained using a non-linear dose-response curve fitting analysis via Graph Pad Prism v.4.0 software (Graph Pad Prism, Inc: San Diego, CA, USA, 1994–2003).

Plasmodium berghei = assay: In vivo antiplasmodial activity, four-day suppressive test in infected mice; parameters: species or system Swiss mice; details: P. berghei infected mice, oral for four consecutive days, smears on day five; chloroquine 5 mg/kg/day; dose not given (50-400 mg/kg/day groups)
Method: This study was carried out after the approval from the Ethical Committee on Animal Use and Care of the University of Zululand (UZREC 171110-030 PGD 2013/26). Swiss mice (20-25 g each) of both sexes were obtained from biomedical research unit (BRU) in the University of […], Durban. They were kept in plastic cages, and given standard laboratory diet and water ad libitum and maintained under laboratory conditions of temperature and 12 h light and 12 h dark cycle. The animals were allowed to acclimatize to the laboratory at a controlled temperature of 22 °C for 15 days before being subjected to the experiments. The animals were divided into seven groups (eight in each group) consisting of control, chloroquine (5 mg/kg/day), and the extract treated group. The extract treated group was sub divided into five sub groups that received 50, 100, 200, 300 and 400 mg/kg/day body weight respectively. A single donor mouse infected with Plasmodium berghei parasites was bled into sterile heparinized culture medium and the blood was diluted with RPMI 1640 medium. The healthy experimental mice were infected intravenously via a tail vein with 0.2 mL of the diluted blood containing 1 × 10^7 parasitized (Plasmodium berghei) red blood cells on day one. The antimalarial activity tests were performed using the four-day suppressive tests described by Peters et al.. The extracts dissolved in 0.5% carboxymethyl cellulose (CMC) were administered orally using cannula (equivalent to 0.2 mL solution per mouse) for four consecutive days. […] The percent parasitemia suppression was determined by counting the number of parasitized erythrocytes out of 500 red blood cells on random fields under the microscope. The average percentage suppression of parasitemia was calculated using the following formula: % suppression = A - B/C (1) where A = % parasitemia in untreated controls, B = % parasitemia in treated groups, and C = % parasitemia in untreated controls. The data were analyzed using the F-test.

[2] = P. falciparum CQS D10 strain, in vitro, pLDH assay, triplicate, starting concentration 100 μg/mL, read-out: IC50 (anti-plasmodial activity, concentration inhibiting 50% of parasite growth)

Q: With `C[C@H]1[C@H](C)CC[C@]2(C(=O)O)CC[C@]3(C)C(=CC[C@@H]4[C@@]5(C)CCC(=O)C(C)(C)[C@@H]5CC[C@]43C)[C@H]12` [3-oxo-ursolic acid] as the compound, how does the IC50 [1, 2] read?
A: The IC50 was 7.3 µg/mL (≈ 16.1 µM).

Q: `C[C@H]1[C@H](OC(=O)CCC(=O)O)O[C@@H]2O[C@@]3(C)CC[C@H]4[C@H](C)CC[C@@H]1[C@@]24OO3` [Artesunate, reference compound] was tested. Which IC50 ([1]; P. falciparum CQS D10 strain, in vitro, pLDH assay, values marked * = ng/mL, read-out: IC50 (anti-plasmodial activity), reference drugs) did it give?
A: The IC50 was 0.0051 µg/mL (≈ 0.0133 µM).

Q: With `CCN(CC)CCCC(C)Nc1ccnc2cc(Cl)ccc12` (centres unmarked) [Chloroquine, reference compound] as the compound, how does the IC50 ([1]; D10, read-out: IC50 (anti-plasmodial activity), reference drugs) read?
A: Its IC50 is 0.0141 µg/mL (≈ 0.0441 µM).

Q: And the “Average % suppression (of parasitemia)” value (Plasmodium berghei)?
A: Its value is 83.43%.

Q: How did the IC50 [1, 2] turn out when `CO[C@H]1CC[C@@]2(C)C(CC[C@@]3(C)C4=CC[C@@]5(C)CCC(C)(C)CC5[C@]4(C)CCC23)C1(C)C` (some centres unmarked) [Sawamilletin, sawamilletin] was run?
A: Its IC50 is greater than 100 µg/mL.

Q: With `CC1(C)CC[C@]2(C)CC=C3[C@]4(C)CC[C@H]5C(C)(C)[C@@H](O)CC[C@]5(C)[C@H]4CC[C@@]3(C)[C@@H]2C1` [Taraxerol, taraxerol] as the compound, how does the IC50 [1, 2] read?
A: Its IC50 is greater than 100 µg/mL.

Q: Which results are given for `CC(=O)O[C@H]1CC[C@]2(C)[C@H]3CC=C4[C@@H]5[C@@H](C)[C@H](C)CC[C@]5(C(=O)O)CC[C@@]4(C)[C@]3(C)CC[C@H]2C1(C)C` [Ursolic acid acetate, 3β-acetylursolic acid]?
A: IC50 [1, 2]: 1.9 µg/mL; Increase in the in vitro anti-malarial activity relative to ursolic acid ([1]; acetate derivative versus ursolic acid, P. falciparum D10): 72%; Average % parasitemia (Plasmodium berghei): 0.07%; Average % suppression (of parasitemia) (Plasmodium berghei): 94.01%

Q: With `C[C@H]1[C@H](C)CC[C@]2(C(=O)O)CC[C@]3(C)C(=CC[C@@H]4[C@@]5(C)CC[C@H](O)C(C)(C)[C@@H]5CC[C@]43C)[C@H]12` [Ursolic acid, ursolic acid] as the compound, how does the IC50 [1, 2] read?
A: The IC50 was 6.8 µg/mL (≈ 14.9 µM).
